Assay results from PMC8123931 (Nature chemical biology, 2020).
Like-named read-outs stand apart in the source and are kept apart here.

Tests used:
EGFR ex19del/T790M/C797S = EGFR ex19del/T790M/C797S (Homo sapiens, UniProt P00533, C797S/DEL746-750/T790M); assay: In vitro kinase assay, recombinant kinase domain; type: biochemical
EGFR L858R/T790M/C797S [1] = molecular target: T1, EGFR L858R/T790M/C797S (Homo sapiens, UniProt P00533, C797S/L858R/T790M); assay: MaMTH-DS assay, EGFR L858R/T790M/C797S bait with CrkII and Hsp90; type: cell-based
[2] = molecular target: purified pig brain tubulin (Sus scrofa, UniProt P02550+P02554); assay: In vitro microtubule dynamics assay with mCherry-EB3; type: biochemical
EGFR L858R/T790M/C797S [3] = molecular target: T1, EGFR L858R/T790M/C797S; assay: In vitro kinase assay, recombinant kinase domain; type: biochemical
EGFR L858R/T790M/C797S [4] = molecular target: T1, EGFR L858R/T790M/C797S; assay: MaMTH-DS assay and screen, EGFR L858R/T790M/C797S bait with Shc1 prey; type: cell-based

Chain of purified pig brain tubulin (P02550 whole entry, the tested form may be a part): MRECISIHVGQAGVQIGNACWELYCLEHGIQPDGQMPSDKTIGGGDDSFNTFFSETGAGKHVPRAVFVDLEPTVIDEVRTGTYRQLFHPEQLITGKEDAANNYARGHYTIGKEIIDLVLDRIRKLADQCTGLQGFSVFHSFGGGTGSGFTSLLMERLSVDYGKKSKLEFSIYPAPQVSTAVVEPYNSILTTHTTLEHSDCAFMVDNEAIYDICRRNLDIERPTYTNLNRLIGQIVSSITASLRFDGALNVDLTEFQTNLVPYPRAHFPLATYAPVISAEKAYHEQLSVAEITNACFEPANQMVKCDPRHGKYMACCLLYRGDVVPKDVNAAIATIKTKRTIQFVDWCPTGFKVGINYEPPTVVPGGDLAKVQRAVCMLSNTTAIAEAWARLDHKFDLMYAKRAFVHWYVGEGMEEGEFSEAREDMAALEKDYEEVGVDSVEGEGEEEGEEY
Chain of purified pig brain tubulin (P02554 whole entry, the tested form may be a part): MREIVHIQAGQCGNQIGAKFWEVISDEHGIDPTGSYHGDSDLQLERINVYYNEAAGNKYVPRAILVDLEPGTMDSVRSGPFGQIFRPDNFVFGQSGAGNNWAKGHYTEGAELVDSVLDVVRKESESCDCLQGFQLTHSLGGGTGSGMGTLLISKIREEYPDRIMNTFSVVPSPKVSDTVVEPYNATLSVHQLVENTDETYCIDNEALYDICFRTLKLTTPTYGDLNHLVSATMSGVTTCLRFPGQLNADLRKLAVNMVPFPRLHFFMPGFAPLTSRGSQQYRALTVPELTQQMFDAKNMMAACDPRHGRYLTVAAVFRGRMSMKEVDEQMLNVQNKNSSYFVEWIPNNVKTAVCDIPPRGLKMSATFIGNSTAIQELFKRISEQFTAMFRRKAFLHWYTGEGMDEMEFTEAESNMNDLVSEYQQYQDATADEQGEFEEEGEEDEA

inhibition of kinase activity of EGFR triple-mutant protein (EGFR ex19del/T790M/C797S): no inhibition of the kinase activity
inhibition of kinase activity of EGFR triple-mutant protein (EGFR L858R/T790M/C797S [3]): no inhibition of the kinase activity
interaction of Shc1 with EGFR L858R/T790M/C797S (in words) (EGFR L858R/T790M/C797S [4]; listed as ChemBridge compound 5213777): robust, dose-dependent inhibition
SMILES: CCN(CC)c1ccc2cc(-c3nc4ccccc4o3)c(=O)oc2c1 [EMI1, 3-(1,3-benzoxazol-2-yl)-7-(diethylamino)-2H-chromen-2-one]
interaction of CrkII with EGFR L858R/T790M/C797S (EGFR L858R/T790M/C797S [1]): inhibited interaction of both proteins with EGFR at a level similar to that observed with Shc1
interaction of Hsp90 with EGFR L858R/T790M/C797S (EGFR L858R/T790M/C797S [1]): inhibited interaction of both proteins with EGFR at a level similar to that observed with Shc1
microtubule dynamics (growth rate, time, catastrophe frequency) [2]: reduced microtubule growth rate and time, while increasing catastrophe frequency
interaction of Shc1 with EGFR L858R/T790M/C797S (in words) (EGFR L858R/T790M/C797S [4]): potently reducing the interaction of EGFR triple mutant with Shc1
